The test system of series [1] is SK-BR-3, SK-OV-3, JIMT-1 and MCF7 cells. Kind of series: Cell viability, all cells of Fig. 4d. Conditions: SK-BR-3, SK-OV-3, JIMT-1, MCF7; CellTiter Glo; n = 3 independent experiments. In kind it is cell-based. As for the experimental part: (§1) Cells were seeded in a 96-well white opaque plate at a density of 5 × 10^3/well (CHO, ATCC, CCL-61) or 1 × 10^4/well (MCF7 (ATCC, HTB-22), SK-BR-3 (ATCC, HTB-30), SK-OV-3 (ATCC, HTB-77) or JIMT-1(Beyotime, C6453)). Cells were allowed to attach for 24 h at 37 °C and 5% CO2 in humidified atmosphere. Cells were then treated with serial dilutions of Tra-CAST, Tra-CAST-MMAE and SBA-MMAE or Tra-CASTi, Tra-CASTi-MMAE and DBCO-MMAE for 96 h (BT474, MCF7, SK-BR-3). Cell viability was determined using CellTiter Glo reagents (G7571) and was normalized to the control cells. Data was analyzed by Graphpad software, and the half-maximal effective concentration (EC50) value was calculated by fitting with the log(inhibitor) vs. response module.
10! […]
(§2) Our selected nanobody binds to human serum albumin (HSA)7, The functional impact of inserting CAST to nanobody was evaluated by measuring the affinity to human serum albumin using Biolayer Interferometry at room temperature. […]
Cells were seeded in a 96-well white opaque plate at a density of 5 × 10^3/well (CHO) or 1 × 10^4/well (MCF7, SK-BR-3, SK-OV-3 or JIMT-1). […] Cell viability was determined using CellTiter Glo reagents (G7571) and was normalized to the control cells. Data was analyzed by Graphpad software, and the half-maximal effective concentration (EC50) value was calculated by fitting with the log(inhibitor) vs. response module. […]

Another series is described as follows: PBS. Conditions: 95 °C, up to 1 hour.
The nature of the next series: 10 mM cysteine in PBS. Conditions: 95 °C, up to 1 hour.
A further series can be described thus: mouse plasma. To be noted: Male BALB/c mice, 37 °C, up to 144 h.
The next series can be described thus: fresh serum. To be noted: Male BALB/c mice, 37 °C, up to 20 hours (table); 21 h (methods).
Series [2] is described as follows: 20 mM glutathione, PBS (pH 7.4). Conditions: 37 °C, up to 22 h.
For another series, the system named is CHO, MCF7, SK-BR-3 cells. Description: Cell viability, all cell lines of Supplementary Fig. 38. To be noted: 96 h, CellTiter Glo. In kind it is cell-based. As for the experimental part: as §1
Deconvolutedmass (Da) Deconvolutedmass (Da)
Supplementary Figure 37. ESI ion series/deconvolution MS spectra: reactions between […]
trastuzumab-CAST and 1C and SBA-MMAE. a. […]
as §2
Cells were seeded in a 96-well white opaque plate at a density of 5 × 10^3/well (CHO) or 1 × 10^4/well (MCF7, SK-BR-3, SK-OV-3 or JIMT-1). […] Cell viability was determined using CellTiter Glo reagents (G7571) and was normalized to the control cells. Data was analyzed by […]
In general terms: In ATP-based viability assays light output follows the ATP content of the culture.

Entries after “also recorded” stand apart in the source; their conditions may differ.

With “DBCO-PEG3-Glu-Val-Cit-PAB-MMAE [DBCO-MMAE]”, the “toxicity towards all cells” value in series [1] is “minimal toxicity”.
Regarding DLAAEIAKHCG, the fragment found result in the series “PBS” is “Maleimide hydrolysis byproduct, 1h”; in “10 mM cysteine in PBS” it was “Maleimide hydrolysis byproduct, 1h; also recorded: SM:DLAAEIAKHCG, 1h”.
For Phenyl-PEG2-FFKKDDHAA, in the series “mouse plasma”, the cleaved bond entry is given as “F-K, 18 h; also recorded: F-F, 48 h” and the fragment found result is reported as “Phenyl-PEG2-FFKK, 48 h”.
For Phenyl-PEG2-IAPDDHAA, in the series “mouse plasma”, the not cleaved entry is reported as “remained intact following incubation in plasma for 144 h”.
For the substance Phenyl-PEG2-SPG-FFKKDDHAA, the cleaved bond result in “fresh serum” is “P-G, 3 hours; also recorded: F-K, 3 hours; also recorded: G-F, 3 hours”.
On the same count and under the same terms, next, Phenyl-PEG2-SPG-HAQDDHAA: “P-G, 3 hours”; Phenyl-PEG2-SPG-IAPDDHAA: “G-I, 3 hours; also recorded: D-D, 20 hours; also recorded: P-G, 20 hours”.
Same read-out and setting: the entry for Phenyl-PEG2-SPG-IAQDDHAA is “G-I, 3 hours”.
On to Phenyl-PEG2-SPG-IKAQDDHAA, for which the cleaved bond result in the series “fresh serum” is on record as “I-K, 3 hours; also recorded: G-I, 3 hours; also recorded: A-Q, 3 hours; also recorded: P-G, 3 hours”.
On the same count and under the same terms, next, Phenyl-PEG2-SPG-INDPDDHAA: “P-G, 3 hours; also recorded: G-I, 20 hours”.
Still for that read-out and setting: the entry for Phenyl-PEG2-SPG-KAQDDHAA is “P-G, 3 hours; also recorded: G-K, 3 hours”; for Phenyl-PEG2-SPG-LKQDDHAA it is “G-L, 3 hours”; for Phenyl-PEG2-SPG-MEQDDHAA it is “G-M, 3 hours; also recorded: P-G, 3 hours”.
On to Phenyl-PEG2-SPG-NAPDDHAA, for which the cleaved bond entry in the series “fresh serum” is “G-N, 20 hours; also recorded: P-G, 20 hours”.
On the same count and under the same terms, the entry for Phenyl-PEG2-SPG-NAQDDHAA is “G-N, 3 hours; also recorded: P-G, 3 hours”.
The same measure, in the same setting: the entry for Phenyl-PEG2-SPG-NEQDDHAA is “P-G, 3 hours; also recorded: G-N, 20 hours”.
Still for that read-out and setting: the entry for Phenyl-PEG2-SPG-NKKDDHAA is “G-N, 3 hours”; for Phenyl-PEG2-SPG-SHAQDDHAA it is “G-S, 3 hours; also recorded: P-G, 3 hours”.
Take Phenyl-PEG2-SPG-SKAQDDHAA: the cleaved bond result in “fresh serum” was “G-S, 3 hours; also recorded: P-G, 3 hours”.
For the substance “WCGIAPDDHAA [maleimide modified WCGIAPDDHAA]”, the fragment found entry in series [2] is reported as “released free peptide WCGIAPDDHAA, 22 h; also recorded: maleimide hydrolysis byproducts, 22 h”.
As for WCGIAPDDHAA [maleimide-WCGIAPDDHAA], the fragment found entry in series [2] is given as “WCGIAPDDHAA, 22 h”.
With “styrylboronic acid-Val-Cit-PAB-monomethyl auristatin E [SBA-MMAE]”, the “toxicity in all cell lines at the tested concentrations” value with CHO, MCF7, SK-BR-3 cells was “displayed toxicity and could not effectively distinguish HER2-negative MCF7 cells or HER2-positive SK-BR-3 cells”.

The values are drawn from publication PMC10698186 (Nature Communications, 2023).
